According to patent US6066655A, “4-phenyl-3-substituted 1,4-dihydropyridine esters” (Bayer Aktiengesellschaft, priority 1993, dated 2000):
pKi: −log10 of the molar value.

What was measured:
[1] = test system: PN 200-110 binding sites in the rat brain; assay: Binding affinity for PN 200-110 (DHP) binding sites in the rat brain; conditions: for Selectivity: Ki (Heart) relative to Ki (Brain), rat; for pKi: rat brain, PN 200-110 binding sites
Description: (§1) Binding Assays […] Can. Journ. Physiol. Pharmacol. 65, (1987) 1452. […] This manifests itself, for example, by comparison of the binding affinities for DHP (PN-200 110) binding sites in the rat brain and rat […]., Rutledge, A., Janis, […]., Can. Journ. Physiol. Pharmacol. 65 (1987), 1452].

[2] = molecular target: T1, PN 200-110 binding sites in the rat heart (Rattus norvegicus, UniProt P22002); assay: Binding affinity for PN 200-110 (DHP) binding sites in the rat heart
T1 construct: from tissue; host or cells: rat heart
Description: as §1

T1 sequence (P22002 whole entry, other chains not shown): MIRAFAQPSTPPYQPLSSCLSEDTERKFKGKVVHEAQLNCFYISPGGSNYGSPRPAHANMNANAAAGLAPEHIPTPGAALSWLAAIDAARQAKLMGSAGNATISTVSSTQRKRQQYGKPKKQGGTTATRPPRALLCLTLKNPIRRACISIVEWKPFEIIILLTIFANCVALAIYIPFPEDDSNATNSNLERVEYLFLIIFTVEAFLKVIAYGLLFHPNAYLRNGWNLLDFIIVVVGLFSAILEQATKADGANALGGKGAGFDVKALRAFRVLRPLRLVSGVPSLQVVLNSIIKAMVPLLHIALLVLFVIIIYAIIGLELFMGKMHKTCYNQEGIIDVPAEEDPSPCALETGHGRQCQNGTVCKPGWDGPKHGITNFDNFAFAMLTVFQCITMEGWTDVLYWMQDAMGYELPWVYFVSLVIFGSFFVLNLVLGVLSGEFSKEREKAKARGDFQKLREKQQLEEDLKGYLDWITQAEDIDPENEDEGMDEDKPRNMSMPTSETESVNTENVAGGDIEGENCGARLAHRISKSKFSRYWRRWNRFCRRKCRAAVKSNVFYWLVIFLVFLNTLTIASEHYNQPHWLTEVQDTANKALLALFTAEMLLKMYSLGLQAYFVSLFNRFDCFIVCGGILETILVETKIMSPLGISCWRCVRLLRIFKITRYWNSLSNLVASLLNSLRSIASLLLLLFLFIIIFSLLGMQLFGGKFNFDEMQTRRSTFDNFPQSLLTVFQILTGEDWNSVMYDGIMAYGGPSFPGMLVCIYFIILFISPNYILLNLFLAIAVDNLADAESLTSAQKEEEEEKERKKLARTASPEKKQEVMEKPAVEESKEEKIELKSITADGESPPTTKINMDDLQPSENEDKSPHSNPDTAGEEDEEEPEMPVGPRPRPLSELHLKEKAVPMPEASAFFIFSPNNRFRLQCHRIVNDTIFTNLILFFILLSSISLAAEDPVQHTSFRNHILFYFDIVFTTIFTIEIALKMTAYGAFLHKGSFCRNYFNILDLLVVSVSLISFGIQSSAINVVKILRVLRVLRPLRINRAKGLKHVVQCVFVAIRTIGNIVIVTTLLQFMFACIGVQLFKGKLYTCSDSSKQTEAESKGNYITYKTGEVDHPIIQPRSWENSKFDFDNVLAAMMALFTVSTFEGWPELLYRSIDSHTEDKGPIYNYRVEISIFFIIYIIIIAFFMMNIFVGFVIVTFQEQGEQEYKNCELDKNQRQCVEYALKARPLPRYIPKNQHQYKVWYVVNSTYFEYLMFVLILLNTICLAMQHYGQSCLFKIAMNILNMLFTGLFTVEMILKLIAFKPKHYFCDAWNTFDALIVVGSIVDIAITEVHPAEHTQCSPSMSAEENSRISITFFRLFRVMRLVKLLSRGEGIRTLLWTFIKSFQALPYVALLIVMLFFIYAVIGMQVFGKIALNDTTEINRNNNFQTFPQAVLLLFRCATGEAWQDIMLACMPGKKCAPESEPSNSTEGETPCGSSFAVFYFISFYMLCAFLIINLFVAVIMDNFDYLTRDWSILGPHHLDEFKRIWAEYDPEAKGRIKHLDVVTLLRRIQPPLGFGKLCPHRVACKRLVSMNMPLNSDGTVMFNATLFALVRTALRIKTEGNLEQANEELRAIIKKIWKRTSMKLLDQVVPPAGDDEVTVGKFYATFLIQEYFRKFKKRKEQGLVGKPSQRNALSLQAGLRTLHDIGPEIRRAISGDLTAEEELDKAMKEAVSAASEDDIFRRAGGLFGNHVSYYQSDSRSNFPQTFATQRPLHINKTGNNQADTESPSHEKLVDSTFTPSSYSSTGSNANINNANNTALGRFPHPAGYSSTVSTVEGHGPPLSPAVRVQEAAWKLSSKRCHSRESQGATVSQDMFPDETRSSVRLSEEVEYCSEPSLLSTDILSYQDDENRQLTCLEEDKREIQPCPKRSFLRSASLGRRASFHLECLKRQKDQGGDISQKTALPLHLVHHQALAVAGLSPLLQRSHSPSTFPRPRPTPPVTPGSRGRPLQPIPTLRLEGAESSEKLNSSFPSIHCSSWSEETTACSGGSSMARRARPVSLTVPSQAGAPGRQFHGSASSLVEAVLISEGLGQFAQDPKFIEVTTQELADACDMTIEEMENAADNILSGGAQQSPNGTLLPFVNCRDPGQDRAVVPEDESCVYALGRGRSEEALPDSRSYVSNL
T1 sequence (P54290 25-944 partner limits assumed, other chains not shown): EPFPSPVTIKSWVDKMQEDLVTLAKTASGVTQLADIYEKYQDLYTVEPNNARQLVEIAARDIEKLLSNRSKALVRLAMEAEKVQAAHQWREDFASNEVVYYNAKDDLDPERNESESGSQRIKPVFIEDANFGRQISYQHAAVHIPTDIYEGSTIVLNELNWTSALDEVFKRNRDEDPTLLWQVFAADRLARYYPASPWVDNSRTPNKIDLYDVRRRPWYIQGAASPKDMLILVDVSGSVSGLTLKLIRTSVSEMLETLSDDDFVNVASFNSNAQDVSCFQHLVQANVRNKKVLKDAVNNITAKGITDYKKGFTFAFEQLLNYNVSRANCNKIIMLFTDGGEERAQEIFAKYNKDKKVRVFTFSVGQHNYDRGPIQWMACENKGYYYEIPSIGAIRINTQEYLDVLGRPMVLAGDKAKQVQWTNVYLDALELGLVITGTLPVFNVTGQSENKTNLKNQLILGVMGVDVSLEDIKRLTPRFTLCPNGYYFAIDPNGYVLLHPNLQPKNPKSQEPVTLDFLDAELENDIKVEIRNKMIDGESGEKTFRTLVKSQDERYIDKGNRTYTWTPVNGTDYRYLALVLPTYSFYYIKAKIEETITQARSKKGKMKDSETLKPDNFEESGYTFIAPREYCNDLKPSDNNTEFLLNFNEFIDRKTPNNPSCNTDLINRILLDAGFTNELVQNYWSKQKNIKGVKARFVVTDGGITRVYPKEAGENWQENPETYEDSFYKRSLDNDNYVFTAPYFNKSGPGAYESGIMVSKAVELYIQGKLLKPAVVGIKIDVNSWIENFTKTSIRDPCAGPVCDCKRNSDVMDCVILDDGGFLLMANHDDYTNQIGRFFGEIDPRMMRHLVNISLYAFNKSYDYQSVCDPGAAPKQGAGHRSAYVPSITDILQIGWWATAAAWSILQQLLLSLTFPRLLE
T1 sequence (P54290 945-1091 partner limits assumed, other chains not shown): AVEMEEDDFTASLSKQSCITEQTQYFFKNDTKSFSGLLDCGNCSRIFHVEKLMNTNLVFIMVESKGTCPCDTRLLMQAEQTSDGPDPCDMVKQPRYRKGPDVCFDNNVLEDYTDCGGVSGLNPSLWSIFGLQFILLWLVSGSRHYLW

Structure (SMILES) | Selectivity [1] | pKi [1] | pKi [2]
COC(=O)C1=C(C)NC(C)=C(C(=O)OCCN(C)Cc2ccccc2)C1c1cccc([N+](=O)[O-])c1 (stereo not shown) [Nicardipine, nicardipine] | 0.44 | 7.49 | 
COCCOC(=O)C1=C(C)NC(C)=C(C(=O)OC(C)C)C1c1cccc([N+](=O)[O-])c1 (stereo not shown) [Nimodipine, nimodipine] | 1.9 | 8.62 | 
CO[C@H](COC(=O)C1=C(C)NC(C)=C(C(=O)OC(C)C)C1c1cccc(F)c1F)c1ccccc1 (stereo partly drawn) [Example 21, isopropyl (S)-methoxy-2-phenylethyl 4-(2,3-difluorophenyl)-1,4-dihydro-2,6-dimethylpyridine-3,5-dicarboxylate] | 6.0 | 7.89 | 7.11
